Values after ≈ are worked out from the molar mass of the structure shown.
Test system: Mycobacterium tuberculosis
Experiment: Antimicrobial activity against vancomycin-resistant Mycobacterium tuberculosis
Assay type: functional, organism-based

Row | Compound | MIC | IC50
1 | CC(C)=CCC[C@@](C)(O)[C@@H]1CC/C(C)=C/CC/C(C)=C/Cc2cc(ccc2O)C(=O)O1 [CALLOPHYCOLIDE A] | 12 µM (≈ 5.12 µg/mL) | –
2 | Cc1cc(O)cc(CC[C@](C)(O)CCC[C@H](C)CCC[C@H](C)CCCC(C)C)c1O | – | > 100 µM
3 | CC1=C2Cc3cc(ccc3O)C(=O)O[C@H](C(C)(C)Br)CC[C@](C)(O)[C@H](Br)CC[C@]2(C)[C@@H](Br)CC1 | 11 µM (≈ 7.32 µg/mL) | –
4 | CC1=C2Cc3cc(ccc3O)C(=O)O[C@H](C(C)(C)O)CC[C@]3(C)O[C@H]3C/C=C(\C)C2CC1 (some centres undefined) | > 100 µM | –

From ChEMBL document CHEMBL1255553, “Unusual antimalarial meroditerpenes from tropical red macroalgae” (Bioorg Med Chem Lett, 2010)
